Results: patent US7741355B2, “Small-molecule modulators of TRP-p8 activity” (Dendreon Corporation, priority 2006, dated 2010)
Like-named read-outs stand apart in the source and are kept apart here.

Target: T1, Trp-p8 (Homo sapiens, UniProt Q7Z2W7, T58I)
T1 construct: expressed in transfected cells; host or cells: CHO (Chinese Hamster Ovary) cells
Assay: ATP viability assay with CHO/Trp-p8 cells at 37° C.
Type: cell-based
Conditions: CHO/Trp-p8 cells, 24-26 hours at 37° C., 50% reduction in relative cell viability, read-out: EC50
Text: Human Trp-p8 transfected CHO cells (referred to herein as CHO/Trp-p8) were generated for use in experiments of the present invention. Expression of Trp-p8 polypeptide in this transfectant and the absence of any endogenous expression in the non-transfected CHO was confirmed by western blot and immunofluorescence using a Trp-p8 specific antibody (GS2.20) as well as the calcium flux assay with Icilin (1-[2-hydroxyphenyl]-4-[3-nitrophenyl]-1,2,3,6-tetrahydropyrimidine-2-one) and menthol (2-isopropyl-5-methyl-cyclohexanol). Non-transfected CHO cells were used to establish the specificity of the effects of the compounds observed with CHO/Trp-p8.
This Example discloses an ATP viability assay suitable for screening for effective Trp-p8 agonists. The ATP viability assay described herein employs CHO cells expressing an exogenous Trp-p8 cDNA. This example further establishes that Trp-p8 agonists of the present invention are effective in decreasing the viability of Trp-p8 expressing cells.
The concentration of intracellular ATP declines very rapidly when metabolically active cells undergo necrosis and/or apoptosis. The ATP concentration and consequently the relative cell viability can be measured by established methods using commercially available reagents. In the agonist screening methodology disclosed herein, a compound that specifically decreases the viability of CHO/Trp-p8 cells is referred to as an agonist.
As a primary screen for efficacy and specificity for agonists, both the non-transfected CHO and CHO/Trp-p8 cells were exposed to 1 or 10 μM of test compounds in 1% dimethylsulfoxide (DMSO) or 1% DMSO (control) in a 96-well black walled, black-bottomed, cell-culture treated plate. DMSO was the solvent for all of the compounds tested. After 24-26 hours at 37° C., the cells were lysed and ATP concentration determined via a chemiluminescence assay using a commercially available reagent kit—Cell Titer-Glo (Promega; Madison, Wis.). […] (EC50 is defined herein as the agonist concentration at which there is a 50% reduction in relative cell viability).

T1 sequence (Q7Z2W7 whole entry T58I): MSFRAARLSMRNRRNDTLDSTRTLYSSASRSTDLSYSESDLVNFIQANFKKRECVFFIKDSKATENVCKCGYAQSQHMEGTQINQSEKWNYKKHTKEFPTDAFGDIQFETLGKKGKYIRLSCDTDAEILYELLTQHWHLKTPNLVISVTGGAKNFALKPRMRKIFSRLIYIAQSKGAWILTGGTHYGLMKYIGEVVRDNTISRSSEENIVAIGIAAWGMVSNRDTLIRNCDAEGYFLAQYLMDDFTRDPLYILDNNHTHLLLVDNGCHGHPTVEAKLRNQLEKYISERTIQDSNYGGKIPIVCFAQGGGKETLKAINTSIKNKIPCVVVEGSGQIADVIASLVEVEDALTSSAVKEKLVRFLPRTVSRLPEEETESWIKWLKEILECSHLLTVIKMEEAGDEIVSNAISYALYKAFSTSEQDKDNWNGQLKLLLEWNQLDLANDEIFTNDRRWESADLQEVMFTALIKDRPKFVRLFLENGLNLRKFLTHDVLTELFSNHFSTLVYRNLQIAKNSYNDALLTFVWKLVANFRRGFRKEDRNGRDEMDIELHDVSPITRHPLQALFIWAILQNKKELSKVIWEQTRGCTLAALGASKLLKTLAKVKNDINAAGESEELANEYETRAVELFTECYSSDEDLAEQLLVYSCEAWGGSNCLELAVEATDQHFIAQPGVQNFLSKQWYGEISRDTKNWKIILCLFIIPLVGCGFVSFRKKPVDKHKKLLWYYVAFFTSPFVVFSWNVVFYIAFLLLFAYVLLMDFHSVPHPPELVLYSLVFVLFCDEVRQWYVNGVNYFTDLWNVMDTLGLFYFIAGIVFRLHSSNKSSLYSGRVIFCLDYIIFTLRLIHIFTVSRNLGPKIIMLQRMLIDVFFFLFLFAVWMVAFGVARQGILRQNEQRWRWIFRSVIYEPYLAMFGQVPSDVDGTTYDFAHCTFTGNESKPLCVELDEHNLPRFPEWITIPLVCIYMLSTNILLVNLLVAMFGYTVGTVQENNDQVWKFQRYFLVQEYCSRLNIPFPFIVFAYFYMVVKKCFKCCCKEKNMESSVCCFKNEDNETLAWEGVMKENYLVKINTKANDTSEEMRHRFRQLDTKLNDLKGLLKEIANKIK

| Compound | EC50 (Table 5, Formula I-E) [nM] | further results |
| --- | --- | --- |
| CCNC(=O)c1ccc2c(c1)n(CCN)c(=O)n2C(=O)[C@@H]1C[C@H](C)CC[C@H]1C(C)C (stereo in doubt) [Compound 47, 3-(2-Amino-ethyl)-1-(2-isopropyl-5-methylcyclohexanecarbonyl)-2-oxo-2,3-dihydro-1H-benzoimidazole-5-carboxylic acid ethyl amide] | < 20 |  |
| CC(C)[C@@H]1CC[C@@H](C)C[C@H]1C(=O)n1c(=O)n(CCN)c2cc(C(=O)NCc3ccccc3)ccc21 [Compound 63] | 21 to 50 |  |
| CC(C)[C@@H]1CC[C@@H](C)C[C@H]1C(=O)n1c(=O)n(CCN)c2cc(C(=O)NCC(N)=O)ccc21 [Compound 73] | 51 to 100 |  |
| CC(C)[C@@H]1CC[C@@H](C)C[C@H]1C(=O)n1c(=O)n(CCN)c2cc(C(=O)N3CCOCC3)ccc21 [Compound 64] | 21 to 50 |  |
| CC(C)[C@@H]1CC[C@@H](C)C[C@H]1C(=O)Nc1cc(-c2ccc(N)cc2)nn1CCN [Compound 19] |  | EC50 (Table 2, Formula I-B): 21 to 50 nM |
| CC(C)[C@@H]1CC[C@@H](C)C[C@H]1C(=O)Nc1cc(-c2cccc(N)c2)nn1CCN [Compound 26] |  | EC50 (Table 2, Formula I-B): 51 to 100 nM |
| CC(C)[C@@H]1CC[C@@H](C)C[C@H]1C(=O)NCC(NC(=O)[C@@H](C)N)c1ccccc1 (stereo in doubt) [Compound 28, 2-Isopropyl-5-methyl-cyclohexanecarboxylic acid [2-(2-amino-propionylamino)-2-phenyl-ethyl]-amide] |  | EC50 (Table 3, Formula I-C): < 20 nM |
| COc1cccc(-c2cc(NC(=O)[C@@H]3C[C@H](C)CC[C@H]3C(C)C)n(CCN)n2)c1 [Compound 24] |  | EC50 (Table 2, Formula I-B): 21 to 50 nM |
| CC(C)[C@@H]1CC[C@@H](C)C[C@H]1C(=O)Nc1cc(-c2ccc(O)cc2)nn1CCN [Compound 20] |  | EC50 (Table 2, Formula I-B): 21 to 50 nM |
| CC(C)[C@@H]1CC[C@@H](C)C[C@H]1C(=O)n1c(=O)n(CCN)c2cc3ccccc3cc21 [Compound 51] | < 20 |  |
| COCCNC(=O)c1ccc2c(c1)n(CCN)c(=O)n2C(=O)[C@@H]1C[C@H](C)CC[C@H]1C(C)C [Compound 49] | < 20 |  |
| CC(C)[C@@H]1CC[C@@H](C)C[C@H]1C(=O)Nc1cc(-c2cccc(O)c2)nn1CCN [Compound 27] |  | EC50 (Table 2, Formula I-B): 51 to 100 nM |
| CNCCn1nc(-c2ccccc2)cc1NC(=O)[C@@H]1C[C@H](C)CC[C@H]1C(C)C [Compound 21] |  | EC50 (Table 2, Formula I-B): 21 to 50 nM |
| CCN(CC)CCNC(=O)c1ccc2c(c1)n(CCN)c(=O)n2C(=O)[C@@H]1C[C@H](C)CC[C@H]1C(C)C [Compound 44, 3-(2-Amino-ethyl)-1-(2-isopropyl-5-methylcyclohexanecarbonyl)-2-oxo-2,3-dihydro-1H-benzoimidazole-5-carboxylic acid (2-diethylamino-ethyl)amide] | < 20 |  |
| CC(C)[C@@H]1CC[C@@H](C)C[C@H]1C(=O)n1c(=O)n(CCN)c2cc(C(=O)N(C)c3ccccc3)ccc21 [Compound 68] | 51 to 100 |  |
| CC(C)[C@@H]1CC[C@@H](C)C[C@H]1C(=O)n1c(=O)n(CCN)c2ccc(C(F)(F)F)cc21 [Compound 61] | 21 to 50 |  |
| CC(C)[C@@H]1CC[C@@H](C)C[C@H]1C(=O)Nc1cc(-c2cccn2C)nn1CCN [Compound 17, 2-Isopropyl-5-methyl-cyclohexane carboxylic acid-[2-(2-amino-ethyl)-5-(1-methyl-1H-pyrrol-2-yl)-2H-pyrazol-3-yl]-amide] |  | EC50 (Table 2, Formula I-B): < 20 nM |
| CC(C)[C@@H]1CC[C@@H](C)C[C@H]1C(=O)n1c(=O)n(CCN)c2cc(C(=O)NC(CO)CO)ccc21 [Compound 74] | 51 to 100 |  |
| CCOc1ccc2c(c1)n(CCN)c(=O)n2C(=O)[C@@H]1C[C@H](C)CC[C@H]1C(C)C (stereo in doubt) [Compound 38, 3-(2-Aminoethyl)-5-ethoxy-1-(2-isopropyl-5-methylcyclohexanecarbonyl)-1,3-dihydro-benzoimidazol-2-one] | < 20 |  |
| CC(C)[C@@H]1CC[C@@H](C)C[C@H]1C(=O)Nc1cc2ccccc2cc1NCCN [Compound 8] |  | EC50 (Table 1, Formula I-A): 21 to 50 nM |
| CC(C)[C@@H]1CC[C@@H](C)C[C@H]1C(=O)n1c(=O)n(CCN)c2cc(S(C)(=O)=O)ccc21 [Compound 39] | < 20 |  |
| CC(C)[C@@H]1CC[C@@H](C)C[C@H]1C(=O)n1c(=O)n(CCN)c2ccncc21 [Compound 62] | 21 to 50 |  |

| Compound | EC50 (Table 5, Formula I-E) [nM] | further results |
| --- | --- | --- |
| CC(C)[C@@H]1CC[C@@H](C)C[C@H]1C(=O)n1c(=O)n(CCN)c2cc(C(=O)Nc3ccccc3)ccc21 [Compound 59] | 21 to 50 |  |
| COc1ccc(NC(=O)[C@@H]2C[C@H](C)CC[C@H]2C(C)C)c(C(=O)NCCN)c1 [Compound 5] |  | EC50 (Table 1, Formula I-A): < 20 nM |
| CC(C)[C@@H]1CC[C@@H](C)C[C@H]1C(=O)Nc1cc(-c2ccco2)nn1CCN [Compound 14, 2-Isopropyl-5-methyl-cyclohexane carboxylic acid-[2-(2-amino-ethyl)-5-furan-2-yl-2H-pyrazol-3-yl]-amide] |  | EC50 (Table 2, Formula I-B): < 20 nM |
| CC[C@@H](N)C(=O)Nc1cc(OC)ccc1NC(=O)[C@@H]1C[C@H](C)CC[C@H]1C(C)C [Compound 6] |  | EC50 (Table 1, Formula I-A): 21 to 50 nM |
| CC(C)[C@@H]1CC[C@@H](C)C[C@H]1C(=O)n1c(=O)n(C[C@@H](C)N)c2ccccc21 [Compound 45, 1-(2-Amino-2-(R)-methylethyl)-3-(2-isopropyl-5-methylcyclohexanecarbonyl)-1,3-dihydro-benzoimidazol-2-one] | < 20 |  |
| CC(C)[C@@H]1CC[C@@H](C)C[C@H]1C(=O)Nc1ccccc1C(=O)NCCN [Compound 9] |  | EC50 (Table 1, Formula I-A): 21 to 50 nM |
| COc1ccc(NC(=O)[C@@H]2C[C@H](C)CC[C@H]2C(C)C)c(NC(=O)[C@@H](N)CO)c1 [Compound 10] |  | EC50 (Table 1, Formula I-A): 21 to 50 nM |
| CC(C)[C@@H]1CC[C@@H](C)C[C@H]1C(=O)n1c(=O)n(CCN)c2cc([S+](C)[O-])ccc21 (some centres unmarked) [Compound 43, 3-(2-Amino-ethyl)-1-(2-isopropyl-5-methyl-cyclohexanecarbonyl)-5-methylsulfinyl-1,3-dihydro-benzoimidazol-2-one] | < 20 |  |
| CC(C)[C@@H]1CC[C@@H](C)C[C@H]1C(=O)Nc1ccc2ccccc2c1OCCN [Compound 3] |  | EC50 (Table 1, Formula I-A): < 20 nM |
| CC(C)[C@@H]1CC[C@@H](C)C[C@H]1C(=O)n1c(=O)n(CCN)c2cc(C(=O)Nc3cccnc3)ccc21 (stereo in doubt) [Compound 48, 3-(2-Amino-ethyl)-1-(2-isopropyl-5-methylcyclohexanecarbonyl)-2-oxo-2,3-dihydro-1H-benzoimidazole-5-carboxylic acid pyridine-3-yl amide] | < 20 |  |
| CC(C)[C@@H]1CC[C@@H](C)C[C@H]1C(=O)NCCc1ccccc1NCCN [Compound 33, 2-Isopropyl-5-methyl-cyclohexanecarboxylic acid {2-[2-(2-amino-ethylamino)-phenyl]-ethyl}-amide] |  | EC50 (Table 4, Formula I-D): < 20 nM |
| CC(C)[C@@H]1CC[C@@H](C)C[C@H]1C(=O)NCC(OCCN)c1ccccc1 (some centres unmarked) [Compound 30, 2-Isopropyl-5-methyl-cyclohexanecarboxylic[2-(2-amino-4-ethoxy)-2-phenyl-ethyl]-amide] |  | EC50 (Table 3, Formula I-C): < 20 nM |
| COC(=O)c1ccc(-c2cc(NC(=O)[C@@H]3C[C@H](C)CC[C@H]3C(C)C)n(CCN)n2)cc1 [Compound 25] |  | EC50 (Table 2, Formula I-B): 51 to 100 nM |
| CSc1ccc(NC(=O)[C@@H]2C[C@H](C)CC[C@H]2C(C)C)c(NCCN)c1 [Compound 4, 2-Isopropyl-5-methyl-cyclohexanecarboxylic acid [2-(2-amino-ethylamino)-4-methylsulfanyl-phenyl]amide] |  | EC50 (Table 1, Formula I-A): < 20 nM |
| CC(C)[C@@H]1CC[C@@H](C)C[C@H]1C(=O)n1c(=O)n(CCN)c2cc(OCC(=O)c3ccccc3)ccc21 [Compound 65] | 21 to 50 |  |
| CC(C)[C@@H]1CC[C@@H](C)C[C@H]1C(=O)n1c(=O)n(CCN)c2cc(C(=O)Nc3ccncc3)ccc21 [Compound 56] | 21 to 50 |  |
| CCCCOc1ccc2c(c1)n(CCN)c(=O)n2C(=O)[C@@H]1C[C@H](C)CC[C@H]1C(C)C [Compound 67] | 51 to 100 |  |
| CC(C)[C@@H]1CC[C@@H](C)C[C@H]1C(=O)n1c(=O)n(CCN)c2cc(C(=O)NCCc3ccccc3)ccc21 [Compound 71] | 51 to 100 |  |
| CC(C)[C@@H]1CC[C@@H](C)C[C@H]1C(=O)Nc1cc(-c2ccccc2)nn1CCCN [Compound 18] |  | EC50 (Table 2, Formula I-B): < 20 nM |
| CC(C)[C@@H]1CC[C@@H](C)C[C@H]1C(=O)Nc1ccccc1NC(=O)CN [Compound 11] |  | EC50 (Table 1, Formula I-A): 51 to 100 nM |
| CCN(CC)CCNC(=O)c1cccc2c1n(CCN)c(=O)n2C(=O)[C@@H]1C[C@H](C)CC[C@H]1C(C)C [Compound 55] | 21 to 50 |  |
| CC(C)[C@@H]1CC[C@@H](C)C[C@H]1C(=O)n1c(=O)n(CCN)c2cc(C(=O)N[C@@H](CO)[C@@H](O)c3ccccc3)ccc21 [Compound 72] | 51 to 100 |  |
